Where two headings read alike, the source gives them in different places.
Columns and labels:
[1] = molecular target: PxutCSP19 (Papilio xuthus, UniProt A0A194QJK0); experiment: Fluorescence competitive binding assay (1-NPN displacement), wildtype PxutCSP19; settings: for inhibition at 20 µM: read-out: F.D. (fluorescent displacement rate of ligands), Wildtype (WT); for inhibition at 20 µM / F.D. (fluorescent displacement rate of ligands): ligand at 20 μM, PxutCSP19/1-NPN each 2 μM, NB = no binding; for 1-NPN fluorescence displaced / binding with PxutCSP19 (in words): wildtype; for 1-NPN fluorescence displaced: ligand at 36 μM
Sequence of PxutCSP19 (A0A194QJK0 entry or part of it): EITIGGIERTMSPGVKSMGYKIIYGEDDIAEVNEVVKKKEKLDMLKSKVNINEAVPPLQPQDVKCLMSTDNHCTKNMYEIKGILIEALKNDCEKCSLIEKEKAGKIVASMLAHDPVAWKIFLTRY
From the text: The open reading frame (ORF) of PxutCSP19 was cloned with a PrimeSTAR®® Max DNA Polymerase (TaKaRa, Liaoning, Dalian, China) and gene-specific primers containing restriction enzyme sites (BamH I and Xho I) (Table S2). The PCR products were detected on a 1.5% (w/v) agarose gel, and the expected bands were cut and purified using a HiPure Gel Pure DNA Mini Kit (Magen, Guangzhou, China). Next, BamH I and Xho I were used to digest the PxutCSP19 products and pET-30a (+) plasmids, followed by purification. A T4 DNA ligase (Thermo Fisher Scientific, Waltham, MA, USA) was applied to the construction of the recombinant plasmids pET-30a (+)/PxutCSP19. After being confirmed by sequencing, the plasmids were transformed into BL21 (DE3) competent cells so as to express recombinant proteins with 1.0 mM isopropyl β-D-thiogalactoside (IPTG). Because this recombinant protein pET-30a (+)/PxutCSP19 was insoluble, we applied a protein denaturation–renaturation approach to purify PxutCSP19 with an affinity chromatography technique, in which the denaturation buffer included 8 M urea and 1.0 mM β-mercaptoethanol.
(§1) In order to investigate the ligand-binding properties of PxutCSP19 to host odorants and insecticides, we first asked whether this fluorescent probe 1-NPN was available for the binding of PxutCSP19. To calculate the binding ability of PxutCSP19 to 1-NPN, we titrated different final concentrations of 1-NPN (2~20 μM) into Tris-HCl buffer (pH 7.4) containing 2 μM PxutCSP19. The binding constant (K1-NPN) of 1-NPN to this protein was determined with GraphPad Prism 7 (GraphPad Software Inc., San Diego, CA), as previously described. The solution was excited at 337 nm and the emission peak was monitored at 414 nm on an RF-5301PC spectrofluorometer (Shimadzu, Kyoto, Japan) using a quartz micro-cuvette filled with a 100 μL mixture, with 5 nm excitation and emission slit widths. If the host odorant molecules could displace more than 40% of the 1-NPN fluorescence from the binding cavity of PxutCSP19, the compounds would be continuously added up to 36 μM with triplicates. For the binding experiments, each compound would be added into the PxutCSP19/1-NPN (each 2 μM) complex with final concentrations of 2~20 μM. […] We used the Ki values to compare the binding affinities of various ligands with the equation: Ki = [IC50]/(1 + [1-NPN]/K1-NPN), where IC50 represents the ligand concentrations displacing one half of the initial protein/1-NPN fluorescence, and [1-NPN] is the free concentration of 1-NPN at 2 μM.

[2] = molecular target: T1, PxutCSP19-T1 (Papilio xuthus, UniProt A0A194QJK0); experiment: Fluorescence competitive binding assay (1-NPN displacement), truncated PxutCSP19-T1; settings: for inhibition at 20 µM: T1 (17 N-terminal residues truncated), ligand at 20 μM, read-out: F.D. (fluorescent displacement rate of ligands); for Ki: Ki = [IC50]/(1 + [1-NPN]/K1-NPN)
T1 sequence (A0A194QJK0 35-142): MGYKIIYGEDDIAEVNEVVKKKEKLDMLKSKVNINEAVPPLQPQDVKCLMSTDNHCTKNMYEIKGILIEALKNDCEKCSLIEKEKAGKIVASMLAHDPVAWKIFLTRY
Protocol: as §1
(§2) To determine the effects of an extended N-terminal sequence (approximately 35 amino acids) on the binding specificity of PxutCSP19 to ligands, we next constructed two truncated PxutCSP19s. Firstly, the front 17 amino acids (i.e., EITIGGIERTMSPGVKS, defined as PxutCSP19-T1) and the front 35 amino acids (i.e., […], defined as PxutCSP19-T2) of the N-terminal region without the signal peptide were truncated, respectively. Secondly, the two truncated ORFs (PxutCSP19-T1: 360 bp and PxutCSP19-T2: 306 bp) of PxutCSP19s were separately amplified using RT–PCR with gene-specific primers (Table S2). After that, the amplified products were sub-cloned into pET-30a (+), i.e., pET-30a (+)/PxutCSP19-T1 and pET-30a (+)/PxutCSP19-T2. Using the above-described methods for the expression and purification of proteins, we obtained two truncated proteins. Furthermore, the binding characteristics of the truncated PxutCSP19s to ligands with high affinities were investigated, representing six host odorants and eight insecticides.

[3] = molecular target: T2, PxutCSP19-T2 (Papilio xuthus, UniProt A0A194QJK0); experiment: Fluorescence competitive binding assay (1-NPN displacement), truncated PxutCSP19-T2; settings: for inhibition at 20 µM: T2 (35 N-terminal residues truncated), ligand at 20 μM, read-out: F.D. (fluorescent displacement rate of ligands); for Ki: Ki = [IC50]/(1 + [1-NPN]/K1-NPN)
T2 sequence (A0A194QJK0 53-142): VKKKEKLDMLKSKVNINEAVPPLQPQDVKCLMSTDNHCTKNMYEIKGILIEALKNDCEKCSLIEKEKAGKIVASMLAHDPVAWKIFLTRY
Protocol: as §1, §2

[4] = Wildtype (WT), ligand up to 20 μM or 36 μM, displacing half of protein/1-NPN fluorescence, read-out: IC50

Molecule	IC50 [1]	inhibition at 20 µM [1]	inhibition at 20 µM [2]	Ki ([2]; T1)	IC50 ([2]; T1, read-out: IC50)	inhibition at 20 µM [3]	Ki ([3]; T2)	IC50 ([3]; T2, read-out: IC50)	further results
CCCCCCCCO [1-Octanol]	34.5 ± 1.11 µM	> 40%	43.5%	21.7 ± 0.44 µM	34.5 ± 0.7 µM	42.7%	22.8 ± 0.42 µM	34.6 ± 0.64 µM	–
CCOCn1c(-c2ccc(Cl)cc2)c(C#N)c(Br)c1C(F)(F)F [Chlorfenapyr]	10.71 ± 0.09 µM	58.7%	63.8%	6.47 ± 0.27 µM	10.3 ± 0.43 µM	64.3%	6.68 ± 0.45 µM	10.1 ± 0.68 µM	–
O=C(NC(=O)c1c(F)cccc1F)Nc1cc(Cl)c(Oc2ncc(C(F)(F)F)cc2Cl)c(Cl)c1 [Chlorfluazuron]	11.9 ± 1.04 µM	60.5%	54.7%	7.99 ± 0.94 µM	12.7 ± 1.49 µM	57%	8.88 ± 0.4 µM	13.5 ± 0.6 µM	–
CCOP(=S)(OCC)Oc1nc(Cl)c(Cl)cc1Cl [Chlorpyrifos]	5.52 ± 0.16 µM	75.1%	70.3%	–	–	73.2%	–	–	IC50 [2]: 5.87 ± 0.47 µM; IC50 [3]: 5.32 ± 0.4 µM
O=C(NC(=O)c1c(F)cccc1F)Nc1cc(Cl)c(OC(F)(F)C(F)F)c(Cl)c1 [Hexaflumuron]	12.1 ± 2.36 µM	59.5%	56.5%	7.78 ± 0.46 µM	12.4 ± 0.73 µM	59.6%	8.02 ± 1.03 µM	12.2 ± 1.56 µM	–
COC(=O)N(C(=O)N1CO[C@@]2(C(=O)OC)Cc3cc(Cl)ccc3C2=N1)c1ccc(OC(F)(F)F)cc1 [Indoxacarb]	10.8 ± 0.65 µM	61.5%	59.1%	7.08 ± 0.26 µM	11.3 ± 0.41 µM	62.5%	7.98 ± 0.37 µM	12.1 ± 0.56 µM	–
C=CC(C)(O)CCC=C(C)C (stereo not drawn) [Linalool]	33.8 ± 0.84 µM	> 40%	39.8%	20.8 ± 0.85 µM	33.1 ± 1.34 µM	40.3%	22.8 ± 0.59 µM	34.6 ± 0.9 µM	–
CN(C)C(CSS(=O)(=O)O)CSS(=O)(=O)O [Monosultap]	–	53.6%	54.8%	11.1 ± 0.46 µM	17.6 ± 0.73 µM	61%	11.8 ± 0.67 µM	17.9 ± 1.02 µM	Ki ([1]; Wildtype (WT), Ki = [IC50]/(1 + [1-NPN]/K1-NPN)): 11.1 ± 0.66 µM; IC50 ([1]; Wildtype (WT), ligand up to 20 μM or 36 μM, displacing half of protein/1-NPN fluorescence): 16.8 ± 1.01 µM
CC(C)=CCC/C(C)=C\CO [Nerol]	34 ± 1.46 µM	> 40%	39.4%	21.84 ± 0.02 µM	34.75 ± 0.03 µM	40.8%	22.2 ± 0.56 µM	33.8 ± 0.85 µM	–
C=C/C(C)=C/CC=C(C)C [Ocimene]	31.3 ± 1.73 µM	> 40%	43.1%	19.9 ± 1.17 µM	31.7 ± 1.86 µM	35.2%	21.6 ± 0.72 µM	32.8 ± 1.09 µM	–
CCOP(=S)(OCC)O/N=C(\C#N)c1ccccc1 [Phoxim]	2.63 ± 0.12 µM	87.3%	83.1%	–	–	84.8%	–	–	IC50 [2]: 2.66 ± 0.2 µM; IC50 [3]: 3.16 ± 0.35 µM
C=C(C)[C@H]1Cc2c(ccc3c2O[C@@H]2COc4cc(OC)c(OC)cc4[C@@H]2C3=O)O1 [Rotenone]	9.15 ± 0.76 µM	67.6%	61.8%	–	–	64.4%	–	–	IC50 [2]: 11.12 ± 0.04 µM; IC50 [3]: 11.3 ± 0.58 µM
COc1cc(C=O)cc(OC)c1O [Syringaldehyde]	31 ± 0.97 µM	> 40%	42.7%	17.7 ± 0.84 µM	28.1 ± 1.33 µM	42.2%	18.8 ± 0.74 µM	28.6 ± 1.12 µM	–
CC1=CC[C@H](C(C)C)C=C1 [α-Phellandrene]	> 20 µM	34.1%	–	–	–	–	–	–	–
CC1=CCC2CC1C2(C)C (stereo not drawn) [α-Pinene]	> 20 µM	34.6%	–	–	–	–	–	–	–
CC1=CC=C(C(C)C)CC1 [α-Terpinene]	> 36 µM	> 40%	–	–	–	–	–	–	1-NPN fluorescence displaced [1]: less than 50%
CC1=CC[C@@H](C(C)(C)O)CC1 [α-Terpineol]	> 36 µM	> 40%	–	–	–	–	–	–	1-NPN fluorescence displaced [1]: less than 50%
C=C1CC/C=C(\C)CC[C@@H]2[C@@H]1CC2(C)C [β-Caryophyllene]	–	–	–	–	–	–	–	–	binding with PxutCSP19 (in words) [1]: no binding
C=C[C@]1(C)CC[C@@H](C(=C)C)C[C@H]1C(=C)C [β-Elemene]	–	–	–	–	–	–	–	–	binding with PxutCSP19 (in words) [1]: no binding
C=C1CCC2CC1C2(C)C (stereo not drawn) [β-Pinene]	> 20 µM	31.2%	–	–	–	–	–	–	–
CC1=CCC(C(C)C)=CC1 [γ-Terpinene]	> 36 µM	> 40%	–	–	–	–	–	–	1-NPN fluorescence displaced [1]: less than 50%
Emamectin benzoate [reference compound]	–	–	–	–	–	–	–	–	F.D. (fluorescent displacement rate of ligands) ([1]; Wildtype (WT)): 46.98%; IC50 [1, 4]: > 20 µM
Farnesene	–	–	–	–	–	–	–	–	F.D. (fluorescent displacement rate of ligands) ([1]; Wildtype (WT)): 23.21%; IC50 [1, 4]: > 20 µM
